The text below walks through data of US20230303598A1, “BIOINSPIRED LIPID DERIVATIVES AND USES THEREOF” (Ohio State Innovation Foundation, priority 2020, published 2023).

SMILES strings stand for the structures.

This assay concerns Hep3b cells. The experiment in a line: in vitro mRNA delivery screening of ionizable lipid LNPs with mRNA encoding firefly luciferase. Format: cell-based. Particulars: LNPs of compound/DOPE/cholesterol/PEG-lipid at ratios 20:30:40:0.75, 40:30:40:0.75 and 60:30:40:0.75, Hep3b cells (FIGS. 1-3). From the text:
FIG. 1 illustrates the results of in vitro mRNA delivery screening of ionizable lipids in Hep3b cells at a ratio of 20:30:40:0.75 (compound/DOPE/cholesterol/PEG-lipid).
FIG. 2 illustrates the results of in vitro mRNA delivery screening of ionizable lipids in Hep3b cells at a ratio of 40:30:40:0.75 (compound/DOPE/cholesterol/PEG-lipid).
FIG. 3 illustrates the results of in vitro mRNA delivery screening of ionizable lipids in Hep3b cells at a ratio of 60:30:40:0.75 (compound/DOPE/cholesterol/PEG-lipid).
Phosphates and phosporamide lipid-like compounds First, forty ionizable lipids were synthesized. Then, these ionizable lipids were formulated with DOPE/cholesterol/PEG-lipid at three different ratios (20:30:40:0.75, 40:30:40:0.75, and 60:30:40:0.75) to prepare lipid nanoparticles (LNPs) and screened in Hep3b cells using mRNA-encoding firefly luciferase.

As for `CCCCCCCC/C=C\CCCCCCCCOP(=O)(OCCCCCCCC/C=C\CCCCCCCC)OCCN(C)C` [ZYB20200113-1], the mRNA delivery effectiveness entry is “more effective for mRNA delivery than other ionizable lipids”.
